Patent US10624917B2, “Compositions and methods useful for treating or preventing liver diseases or disorders, and promoting weight loss” (YALE UNIVERSITY, priority 2014, dated 2020)

Legend:
[1] = tested on: wild type and Casp-1−/− mice injected with TAA; test: TAA induced liver fibrosis with co-injection of adenosine agonist; assay type: in vivo, mouse; conditions: wildtype mice
Description: FIGS. 16A-16B illustrate increased liver fibrosis in wild-type control but not caspase-1-deficient mice in response to adenosine agonist. FIG. 16A: Wild type and Casp-1−/− mice were injected intraperitoneally with TAA with co-injection of CGS21680 (2.5 mg kg^−1 body weight) or vehicle. The liver tissues from each group were collected […] after first injection, and tissue collagen visualized by Sirius red staining, and the representative images are shown. Scale bar corresponds to 500 μm. FIG. 16B: Total liver RNA was extracted and Timp1 mRNA levels quantified. Data are expressed as the mean±SD from three independent experiments. * p<0.05 determined by Student's t-test.
To further test the effect of increased adenosine signaling on fibrosis wild-type and caspase-1 deficient mice were injected with TAA with and without co-injection of the adenosine agonist CGS21680. After one week, liver tissues were stained for collagen with Sirus Red. CGS21680 increased TAA induced liver fibrosis and Timp1 expression in wildtype but not caspase-1 deficient mice (FIGS. 16A-16B).

[2] = tested on: Il1b and other genes in PECs; test: Quantitative real-time RT-PCR gene expression in PECs; assay type: cell-based, mouse; conditions: peritoneal macrophages, FIG. 2E
[3] = tested on: IL-1β production in bone marrow derived macrophages; test: IL-1β secretion by LPS/ATP-stimulated bone marrow derived macrophages; assay type: cell-based, mouse; conditions: LPS and ATP
Description: (§1) FIGS. 6A-6B illustrate the finding that bone marrow macrophages and liver Kupffer cells increase IL-1β in response to adenosine signaling. FIG. 6A: Murine bone marrow derived macrophages (BMDM) were primed with LPS for 16 hours, treated with NECA (10 μM) for 1 hour, and then pulsed with ATP. FIG. 6b: Primary murine liver Kupffer cells were primed with LPS for 16 hours, treated with NECA (10 μM) for 1 hour, and then pulsed with ATP. IL-1β secretion was measured in supernatants 5 hours after pulsing with ATP. Data are expressed as the mean±SD from at least three independent experiments. *p<0.05 determined by Student's t-test.
(§2) C57BL/6 mice were purchased from the National Cancer Institute. ASC−/−, Caspase-1−/−, Nlrp3−/− and P2xr7−/− mice have been described (Rock et al., 2010, Annu Rev Immunol. 28:321-42). A2ora2a flox/flox mice and LysMcre mice were purchased from Jackson Laboratories. HIF-1a flox/flox mice were kindly provided by Dr. Ruslan M Medzhitov (Yale University). 7- to 12-week-old males with a variety of genetic manipulations were used in most experiments. […]
(§3) Primed PECs were both pulsed for 20 min with 5 mM ATP or 10 μM nigericin, and left untreated until culture supernatants were collected. Secretion of IL-1β was determined by enzyme-linked immunoabsorbent assay (ELISA; R&D Systems).

[4] = tested on: IL-1β production in liver Kupffer cells; test: IL-1β secretion by LPS/ATP-stimulated Kupffer cells; assay type: cell-based, mouse; conditions: LPS and ATP
Description: as §1, §2, §3

Q: For `CCNC(=O)[C@H]1O[C@@H](n2cnc3c(N)nc(NCCc4ccc(CCC(=O)O)cc4)nc32)[C@H](O)[C@@H]1O` [CGS21680], which “TAA induced liver fibrosis” value [1] is on record?
A: increased

Q: And the Timp1 expression [1]?
A: increased

Q: What about the “induction of Il1b mRNA expression” value [2] of the same compound?
A: increases

Q: Which IL-1β production [3] does the source give for `CCNC(=O)[C@H]1O[C@@H](n2cnc3c(N)ncnc32)[C@H](O)[C@@H]1O` [NECA, 5′-(N-ethylcarboxamido) adenosine] here?
A: significantly increased

Q: And the IL-1β production [4]?
A: significantly increased
